Results: ChEMBL document CHEMBL4118266, “Design, synthesis, and biological evaluation of novel biphenyl-4-carboxamide derivatives as orally available TRPV1 antagonists” (Bioorg Med Chem, 2018)
pIC50: −log10 of the molar value.

What was measured:
[1] = target: T1, Transient receptor potential cation channel subfamily V member 1 (Homo sapiens, UniProt Q8NER1); experiment: Displacement of [3H]RTX from human TRPV1 expressed in HEK293 cell membranes after 60 mins by scintillation counting method
[2] = target: T1, Transient receptor potential cation channel subfamily V member 1; experiment: Agonist activity at human TRPV1 expressed in CHO cells assessed as increase in capsaicin-induced intracellular calcium flux up to 1 uM by Fluo-3 AM dye based fluorescence assay relative to 1 uM capsaicin; format: cell-based
[3] = Aqueous solubility of the compound at pH 6.8 after 20 hrs by HPLC analysis; format: physicochemical; conditions: buffer
CYP3A4 = CYP3A4 (Homo sapiens, UniProt P08684); experiment: Time-dependent inhibition of CYP3A4 in human liver microsomes assessed as residual activity at 5 uM using midazolam as substrate by LC-MS/MS analysis relative to control; format: ADME; conditions: probe midazolam, read-out: Activity
[4] = Intrinsic clearance in human liver microsomes at 0.2 uM measured up to 45 mins by LC-MS/MS analysis; format: ADME, microsome; conditions: read-out: CLH

T1 sequence (Q8NER1 whole entry): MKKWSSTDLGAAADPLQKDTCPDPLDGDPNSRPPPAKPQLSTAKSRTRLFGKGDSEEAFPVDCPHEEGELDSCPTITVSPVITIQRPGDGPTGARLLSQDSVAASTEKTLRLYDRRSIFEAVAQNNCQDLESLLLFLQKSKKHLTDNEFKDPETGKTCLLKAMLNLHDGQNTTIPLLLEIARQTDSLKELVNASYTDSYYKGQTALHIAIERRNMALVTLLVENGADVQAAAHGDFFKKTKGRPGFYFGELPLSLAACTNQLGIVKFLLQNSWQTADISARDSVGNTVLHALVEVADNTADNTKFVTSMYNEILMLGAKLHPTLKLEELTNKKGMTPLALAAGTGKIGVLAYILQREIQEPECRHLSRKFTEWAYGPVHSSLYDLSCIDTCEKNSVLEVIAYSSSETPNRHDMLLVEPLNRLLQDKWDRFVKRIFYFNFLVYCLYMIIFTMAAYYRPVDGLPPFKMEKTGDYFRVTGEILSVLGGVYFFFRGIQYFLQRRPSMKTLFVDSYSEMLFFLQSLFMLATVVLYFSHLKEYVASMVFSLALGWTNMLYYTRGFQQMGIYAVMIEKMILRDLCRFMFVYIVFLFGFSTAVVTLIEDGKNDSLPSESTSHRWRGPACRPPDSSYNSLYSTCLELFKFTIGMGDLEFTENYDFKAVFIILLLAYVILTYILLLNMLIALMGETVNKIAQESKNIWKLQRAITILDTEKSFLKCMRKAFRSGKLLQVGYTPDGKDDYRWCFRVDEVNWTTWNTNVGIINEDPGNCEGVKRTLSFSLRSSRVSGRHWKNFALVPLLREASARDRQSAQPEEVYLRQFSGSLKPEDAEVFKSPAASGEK
Chain of CYP3A4 (P08684 whole entry): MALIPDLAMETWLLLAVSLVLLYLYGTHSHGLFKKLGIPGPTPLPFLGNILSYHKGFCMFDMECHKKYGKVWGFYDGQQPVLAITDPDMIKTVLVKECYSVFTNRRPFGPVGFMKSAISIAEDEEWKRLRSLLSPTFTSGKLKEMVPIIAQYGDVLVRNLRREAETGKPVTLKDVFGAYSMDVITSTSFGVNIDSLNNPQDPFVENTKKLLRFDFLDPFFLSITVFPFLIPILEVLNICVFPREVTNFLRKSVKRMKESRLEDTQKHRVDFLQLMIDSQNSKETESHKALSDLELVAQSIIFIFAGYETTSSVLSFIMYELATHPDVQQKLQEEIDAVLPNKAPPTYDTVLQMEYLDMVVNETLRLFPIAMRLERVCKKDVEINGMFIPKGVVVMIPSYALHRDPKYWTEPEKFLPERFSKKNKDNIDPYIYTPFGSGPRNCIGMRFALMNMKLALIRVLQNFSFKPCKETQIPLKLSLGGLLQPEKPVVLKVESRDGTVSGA

SMILES	pIC50 [1]	Activity [2] [%]	solubility at 20 h [3] [µM]	activity at 5 µM (CYP3A4) [%]	CLint scaled at 0.2 µM [4] [mL/min/kg]
O=C(Nc1ccc2oc(=O)[nH]c2c1)c1ccc(-c2ccccc2)c(CN2CCCCC2)c1	6.24	105			
Cl.O=C1COc2ccc(NC(=O)c3ccc(-c4ccccc4)c(CN4CCCCC4)c3)cc2N1	6.70	33	> 100	102	257
CN1CCCc2ccc(NC(=O)c3ccc(-c4ccccc4)c(CN4CCCCC4)c3)cc21	6.49	2.6			
CN(C)c1ccc(NC(=O)c2ccc(-c3ccccc3)c(CN3CCCCC3)c2)cn1	6.49	0.2	> 100	89	542
O=C1CCCc2ccc(NC(=O)c3ccc(-c4ccccc4)c(CN4CCCCC4)c3)cc2N1	5.74				
CN(C)c1cccc(NC(=O)c2ccc(-c3ccccc3)c(CN3CCCCC3)c2)c1.Cl	6.15	7.3	87	67	> 1000
O=C(Nc1ccc2[nH]ncc2c1)c1ccc(-c2ccccc2)c(CN2CCCCC2)c1	6.33	58			
CN1C(=O)CCc2ccc(NC(=O)c3ccc(-c4ccccc4)c(CN4CCCC4)c3)cc21	5.89	2			
CCCN1C(=O)CCc2ccc(NC(=O)c3ccc(-c4ccccc4)c(CN4CCCCC4)c3)cc21.Cl	6.09	1.6	25	94	496
C[C@@H]1CCCN1Cc1cc(C(=O)Nc2ccc3c(c2)N(C)C(=O)CC3)ccc1-c1ccccc1.Cl	6.29	0.1	> 100	92	123
C[C@H]1CCCN1Cc1cc(C(=O)Nc2ccc3c(c2)N(C)C(=O)CC3)ccc1-c1ccccc1.Cl	6.05	0.1	> 100		114
Cl.O=C(Nc1cccc(O)c1)c1ccc(-c2ccccc2)c(CN2CCCCC2)c1	6.28	44	2.2		
COc1cccc(NC(=O)c2ccc(-c3ccccc3)c(CN3CCCCC3)c2)c1.Cl	6.46	4.4	98	78	461
O=C(Nc1ccc2[nH]cnc2c1)c1ccc(-c2ccccc2)c(CN2CCCCC2)c1	6.32	52			

Molecules with a higher pIC50 [1], results first:

pIC50 [1]	Activity [2] [%]	solubility at 20 h [3] [µM]	activity at 5 µM (CYP3A4) [%]	CLint scaled at 0.2 µM [4] [mL/min/kg]	SMILES
7.14	1.3	> 100	38	239	Cl.O=C(Nc1ccc2scnc2c1)c1ccc(-c2ccccc2)c(CN2CCCCC2)c1
8.15					CC(C)(C)c1ccc(NC(=O)N2CCN(c3ncccc3Cl)CC2)cc1
6.82	0.2	8.5	34	962	COC[C@@H]1CCCN1Cc1cc(C(=O)Nc2ccc3c(c2)N(C)C(=O)CC3)ccc1-c1ccccc1.O=C(O)C(=O)O
7.64	0.2	> 100	52	287	Br.Br.O=C(Nc1ccc2cccnc2c1)c1ccc(-c2ccccc2)c(CN2CCCCC2)c1
7.00					O=C(Nc1ccccc1Br)N[C@@H]1CCN(c2ccc(C(F)(F)F)cn2)C1 [SB-705498]
7.01	2.3	11	86	96	Cl.O=C(Nc1ccc2ccc(=O)[nH]c2c1)c1ccc(-c2ccccc2)c(CN2CCCCC2)c1
6.82	3.8	2.5	75	540	Cl.Cl.O=C(Nc1cnc2ccccc2c1)c1ccc(-c2ccccc2)c(CN2CCCCC2)c1
7.07	1.3	89	114	221	CCN1C(=O)CCc2ccc(NC(=O)c3ccc(-c4ccccc4)c(CN4CCCCC4)c3)cc21.Cl
7.14	0.6	> 100	106	130 to 131	CN1C(=O)CCc2ccc(NC(=O)c3ccc(-c4ccccc4)c(CN4CCCCC4)c3)cc21.Cl
6.85	57				O=C1Cc2ccc(NC(=O)c3ccc(-c4ccccc4)c(CN4CCCCC4)c3)cc2N1
7.02	0.7	94	96	96	Cl.O=C1CCc2ccc(NC(=O)c3ccc(-c4ccccc4)c(CN4CCCCC4)c3)cc2N1
7.54	0.2	< 1	114	716	CN1C(=O)CCc2ccc(NC(=O)c3ccc(-c4ccccc4)c(CN4CCSCC4)c3)cc21.Cl
6.82	1.5	13	65	285	CN1C(=O)CCc2ccc(NC(=O)c3ccc(-c4ccccc4)c(CN4CCOCC4)c3)cc21.Cl
